Some test systems named below: DLD-1 colon; DMS 273 small cell lung; HOP-18 NSCLC; LXFL 529 NSCLC; SNB-78 CNS; XF 498 CNS; M19-MEL melanoma; RXF-631 renal; MDA-N; P388 leukemia; P388/ADR leukemia; SN12K1 renal.
What all share (assay): NCI tumour cell line growth inhibition, 48 h

“And” between values parts separate entries of the source, which are not always exact repeats. Equal values may be shown once.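 Where inhibition never reached the appropriate level, the endpoint shown equals the highest concentration tested. Otherwise, values were interpolated linearly from a five-concentration, 48-hour dose response in 96-well plates. GI50 marks 50% less growth. Definition used: TGI = concentration required for complete inhibition of growth.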

Turning to `CC(C)(C)c1cc(C(=O)O)c(C(c2ccccc2)c2ccccc2C(=O)O)c(C(=O)O)c1` (centres undefined), the TGI with DLD-1 colon, in the experiment on DMS 273 small cell lung, with HOP-18 NSCLC, in the experiment on LXFL 529 NSCLC, in the experiment on SNB-78 CNS and in the experiment on XF 498 CNS was greater than 100 µM in each case.
In the case of `COC(=O)Cc1cc(=O)oc2c1C(=O)CCC2`, the TGI in the experiment with DLD-1 colon, in the experiment with DMS 273 small cell lung, in the experiment with LXFL 529 NSCLC, with M19-MEL melanoma, in the experiment on SNB-78 CNS and in the experiment on XF 498 CNS was greater than 100 µM in each case.
`BrC(Br)([P+](c1ccccc1)(c1ccccc1)c1ccccc1)[P+](c1ccccc1)(c1ccccc1)c1ccccc1`: the TGI in the experiment on DLD-1 colon was 40.6 µM; in the experiment on DMS 273 small cell lung it was 32.6 µM; in the experiment on HOP-18 NSCLC, greater than 100 µM; in the experiment with LXFL 529 NSCLC it was 34.5 µM; in the experiment with M19-MEL melanoma, 38.4 µM; in the experiment with SNB-78 CNS, 90.1 µM.
On to `c1cc2ccc1C1NCCCN1CCN1CCCNC1c1ccc(cc1)C1NCCCN1CCN1CCCNC21` (centres undefined), for which the TGI in the experiment with DLD-1 colon, in the experiment on DMS 273 small cell lung, in the experiment on HOP-18 NSCLC, in the experiment with LXFL 529 NSCLC, in the experiment with M19-MEL melanoma and in the experiment with XF 498 CNS was greater than 100 µM throughout.
With `O=C(NOC(=O)c1ccc([N+](=O)[O-])cc1)c1ccc(Cl)cc1`, the TGI with DLD-1 colon is greater than 100 µM; in the experiment on HOP-18 NSCLC, 89.7 µM; in the experiment with LXFL 529 NSCLC, greater than 100 µM; in the experiment with M19-MEL melanoma it was greater than 100 µM; with RXF-631 renal, greater than 100 µM; in the experiment on SNB-78 CNS, 65.3 µM. The compound further came in with a TGI with XF 498 CNS greater than 100 µM.
For the compound `CC12O[Te]34OC1(C)C(C)(O3)C2(C)O4`, the TGI in the experiment with DLD-1 colon is 30.4 µM; with DMS 273 small cell lung, 37.7 µM; in the experiment on HOP-18 NSCLC it was 32 µM; in the experiment with LXFL 529 NSCLC, 26.7 µM; in the experiment on M19-MEL melanoma it was 25.5 µM; in the experiment with SNB-78 CNS it was 65.9 µM.
The compound `O=C(O)C(O)c1ccc(F)cc1` (centres undefined) gave a TGI in the experiment on MDA-N greater than 100 µM.
For `CN1C(=O)CC2(C)c3cc(C=O)ccc3N(C)C12` (centres undefined), the TGI in the experiment with DLD-1 colon, in the experiment on HOP-18 NSCLC, in the experiment on LXFL 529 NSCLC, with M19-MEL melanoma, in the experiment on RXF-631 renal and with SNB-78 CNS was greater than 100 µM throughout. For the same compound, the TGI in the experiment on XF 498 CNS is greater than 100 µM.
Take `C=C1c2ccccc2N(S(=O)(=O)c2ccc(C)cc2)C12CCCCC2`: the TGI in the experiment on DLD-1 colon, in the experiment with DMS 273 small cell lung, in the experiment with HOP-18 NSCLC, in the experiment on LXFL 529 NSCLC, with M19-MEL melanoma and in the experiment on XF 498 CNS was greater than 100 µM each time.
With `O=C1OC(c2ccc(Cl)c3ccccc23)c2ccccc21` (centres undefined), the TGI in the experiment with HOP-18 NSCLC, in the experiment with M19-MEL melanoma, in the experiment with RXF-631 renal, with SNB-78 CNS and in the experiment on XF 498 CNS was greater than 100 µM each time.
Take `C/C(N=NC(=S)N1CCCCCC1)=C1\C=CC=CN1O`: the TGI in the experiment on DLD-1 colon is greater than 100 µM; in the experiment on DMS 273 small cell lung, 42.1 µM; in the experiment with HOP-18 NSCLC, greater than 92.9 µM; with LXFL 529 NSCLC it was greater than 100 µM; in the experiment on M19-MEL melanoma, 59.3 µM; in the experiment on MDA-N, greater than 100 µM. The TGI in the experiment on RXF-631 renal, in the experiment with SNB-78 CNS and with XF 498 CNS was greater than 100 µM in each case.
With `COc1cc(-c2nn3c(=O)n(-c4ccc(Cl)cc4)c(=O)nc3s2)cc(OC)c1OC`, the GI50 with DLD-1 colon is greater than 50 µM; with M19-MEL melanoma, greater than 50 µM; in the experiment with SNB-78 CNS, 8.88 µM. The TGI was greater than 100 µM in the experiment on DLD-1 colon; greater than 100 µM in the experiment on DMS 273 small cell lung; greater than 100 µM with HOP-18 NSCLC; greater than 100 µM with M19-MEL melanoma; 50 µM and > 100 µM with RXF-631 renal; 50 µM and > 100 µM with SNB-78 CNS.
Take `C(/C=C/N1CCCC1)=C\c1nc(N2CCCC2)c2ccccc2n1`: the TGI amounted to 37.1 µM in the experiment on DLD-1 colon; 34.2 µM in the experiment on DMS 273 small cell lung; 30.3 µM with HOP-18 NSCLC; 28 µM in the experiment on LXFL 529 NSCLC; 32.2 µM in the experiment with M19-MEL melanoma; 41.3 µM in the experiment on RXF-631 renal. The compound also gave a TGI with SNB-78 CNS of 43.6 µM.
As for `O=C1c2c(O)ccc(O)c2C(=O)c2c(NCCNCCO)ccc(NCCNCCO)c21`, the TGI with DLD-1 colon is 4.87 µM; in the experiment with DMS 273 small cell lung, 0.57 µM; in the experiment with HOP-18 NSCLC, 1.67 µM; in the experiment on M19-MEL melanoma it was 0.925 µM; in the experiment with MDA-N it was 1.48 µM and 1.66 µM; in the experiment with P388 leukemia it was 0.0821 µM. Moreover, the TGI in the experiment with P388/ADR leukemia was determined as 6 µM; in the experiment on SN12K1 renal, 0.305 µM; in the experiment on SNB-78 CNS, 1.66 µM; in the experiment with XF 498 CNS, 0.0879 µM.
With `COc1cc2c(c(OC)c1OC)-c1ccc(SC)c(=O)cc1[C@@H](NC(=O)c1ccc(F)cc1)CC2`, the GI50 in the experiment on DLD-1 colon, in the experiment with LXFL 529 NSCLC, with M19-MEL melanoma and in the experiment with SNB-78 CNS was less than 0.01 µM each time. The TGI in the experiment with DLD-1 colon was greater than 100 µM; in the experiment with DMS 273 small cell lung it was 44.7 µM; in the experiment on LXFL 529 NSCLC, greater than 100 µM; in the experiment with M19-MEL melanoma it was greater than 100 µM; in the experiment on SNB-78 CNS, greater than 100 µM; with XF 498 CNS it was 0.0844 µM.
In the experiment with MDA-N, `O=C1Nc2ccc(Br)cc2C1=Nc1ccc(Cl)cc1` registered a TGI of 23.5 µM.
As to `CCC1(Cl)C(=O)NC(=O)N(C2CC(O)C(CO)O2)C1N=[N+]=[N-]` (centres undefined), the TGI in the experiment with DLD-1 colon, in the experiment on DMS 273 small cell lung, in the experiment on LXFL 529 NSCLC, in the experiment with M19-MEL melanoma, in the experiment on RXF-631 renal and with SNB-78 CNS was greater than 100 µM throughout. Moreover, the TGI in the experiment with XF 498 CNS was greater than 100 µM.

(Values after PubChem BioAssay (NCI).)
